Data taken from US20040096456A1, “Method to treat hemophilia” (priority 2003, published 2004).

Columns and labels:
CD4^+ blood lymphocytes = experiment: 5 day proliferation assay of CD4+ blood lymphocytes with individual A3 and C2 peptides; assay type: cell-based, human; conditions: for individual A3 peptides recognized by both patients (FIG. 4): hemophilia A patients with inhibitors # 5 and # 8, peptide 2 μg
From the text: Subiects. Six HIV negative severe hemophilia A patients (3 with inhibitors and 3 without), 4 acquired hemophilia patients (Table 4) and 6 healthy subjects (3 men and 3 women, 34-48 years old) were studied. The acquired hemophilia patients had not received fVIII during the period of time when we studied their CD4^+ response to the fVIII peptides. Among hemophilia A patients, patient #8 had received immune tolerance therapy with high doses of fVIII. The last high dose of fVIII administered as part of the immune tolerance therapy was given approximately 8 months before the first experiment reported here. […] Patient #9 received a prophylactic regimen of weekly injections of standard therapeutic doses of fVIII. All other patients were self treated on an as needed basis. In several hemophilic and healthy subjects we tested the response of CD4^+ blood lymphocytes to fVIII peptides on more than one occasion, at intervals that ranged from a few weeks to several months.
Peripheral blood mononuclear cells (PBMC) were isolated from venous blood and depleted them of CD8^+ T cells (Manfredi et al., 1993), using anti-human CD8 antibody (OKT8; Ortho Diagnostic Systems, Raritan, N.J. or Ancell, Bayport, Minn.) and paramagnetic beads coated with goat anti-mouse IgG antibody (PerSeptive Biosystems, Framingham, Mass.). The CD8^+ depleted PBMC (CD4^+ blood lymphocytes) were used for 5 day proliferation assays (Manfredi et al., […]), using sextuplet wells (2×10^5 cells/well; when cell yield was low, a minimum of 1×10^5 cells/well) and the following stimulants: phytohemagglutinin (Sigma; 10 μg/mL), T cell growth factor (Lymphocult; Biotest Diagnostic Corp., Danville, NJ; final concentration of interleukin 2, 10 U/mL), recombinant human fVIII (Baxter, Glendale, Calif. or Bayer, Elkhart, Ind.; 0.5-1 units/mL; normal plasma concentration: I unit/mL), and the synthetic fVIII peptides, both individually and in pools as described above (final concentration 2 μg/mL of each peptide). Sextuplet wells cultured without any stimulus provided the basal proliferation rate of the cells. We measured cell proliferation from the incorporation of ^3H-thymidine (1 μCi per well, specific activity 6.7 Ci/mmol; Dupont-NEN, Boston, Mass.), expressed as counts per minute (cpm). When an antigen induced a statistically significant (p<0.05) increase in proliferation (assessed using a two-tailed Student's t test), we calculated the stimulation index (SI: ratio between average cpm of cultures in the presence of the antigen and average basal proliferation of the same cells). The use of SI normalizes results, and allows comparison of experiments carried out at different times, and with different subjects.

CD4^+ splenocytes = experiment: Proliferation assay of CD4+ splenocytes from hemophilia A mice exposed to human fVIII; assay type: cell-based, mouse; conditions: for proliferative response, ^3H-thymidine incorporation (FIG. 2): CD4^+ splenocytes from hemophilia A mice immunized with human fVIII, representative experiment; for proliferative response of pooled CD4^+ splenocytes: hemophilia A mice immunized by multiple subcutaneous injections of 5-10 μg recombinant human fVIII in Freund's adjuvant, four independent groups
Protocol: Mice were treated up to 10 times intravenously with 1 μg of purified recombinant human fVIII. CD8^+ depleted spleen cells (so as to leave only CD4^+ T cells; hereafter referred to as “CD4^+ splenocytes”) were used in proliferation assays to test the response to increasing concentrations of fVIII (5-20 nM) and to pools of overlapping synthetic peptides, spanning the sequence of the individual the fVIII domains (fVIII domain pools). Also, the cytokines secreted by CD4^+ splenocytes, after challenge in vitro with fVIII, were determined. The anti-fVIII antibody was measured in the sera as well as their IgG subclass (by ELISA). The inhibitors were measured by the Bethesda assay (Kasper et al., 1975).
Epitope Repertoire on Human fVIII Recognized be CD4^+ Cells from Hemophilia A Mice. The epitope repertoire of the CD4^+ cells sensitized to human fVIII in hemophilia A mice was examined. Mice were immunized by multiple subcutaneous injections of 5-10 μg recombinant human fVIII, emulsified in Freund's adjuvant. This ensured a stronger sensitization of the CD4^+ cells than that obtained after intravenous administration of fVIII. The use of CD4+ splenocytes from mice strongly sensitized to fVIII increases the chances of identifying a comprehensive CD4^+ repertoire, because the CD4^+ cells recognizing individual epitopes on an antigen are scarce among unselected CD4^+ splenocytes.
Four independent groups of 2 to 4 hemophilia A mice were immunized. For each group their CD4^+ splenocytes were pooled, and tested for their proliferative response to fVIII, and to the individual synthetic peptides spanning the sequence of human fVIII. Because of the large number of peptides, all the peptides were tested only in one experiment. In two experiments, peptides spanning the A and C domains were tested. In a fourth experiment, only peptides spanning the Al domain were tested.

[1] = healthy subject #8, second experiment

Substance: GMSSSPHVLRNRAQSGSVPQ (listed as Homo sapiens) [1711-1730]
- recognition by CD4^+ cells (CD4^+ blood lymphocytes; healthy subject #2): recognized

Substance: YDEDENQSPRSFQKKTRHYF (listed as Homo sapiens) [1681-1700]
- recognition by CD4^+ cells (CD4^+ blood lymphocytes; [1]): recognized strongly

Substance: AEPRKNFVKPNETKTYFWKV (listed as Homo sapiens) [1801-1820]
- individual A3 peptides recognized by both patients (FIG. 4) (CD4^+ blood lymphocytes): recognized also by patient # 8

Substance: FATWSPSKARLHLQGRSNAW (listed as Homo sapiens) [peptide 2201-2220]
- proliferative response, ^3H-thymidine incorporation (FIG. 2) (CD4^+ splenocytes): recognized
- proliferative response of pooled CD4^+ splenocytes (CD4^+ splenocytes): recognized clearly and consistently in all or most experiments

Substance: peptide 71-90: 20-residue synthetic peptide, residues 71-90 of the A1 domain of human fVIII (LLGPTIQAEVYDTVVITLKN; UniProt P00451 90-109, looked up, fragment)
- proliferative response of pooled CD4^+ splenocytes (CD4^+ splenocytes): recognized clearly and consistently in all or most experiments

Substance: GLIGPLLVCHTNTLNPAHGR (listed as Homo sapiens) [1851-1870]
- proliferative response, ^3H-thymidine incorporation (FIG. 2) (CD4^+ splenocytes): recognized

Substance: VEMKKEDFDIYDEDENQSPR (listed as Homo sapiens) [1671-1690]
- recognition by CD4^+ cells (CD4^+ blood lymphocytes; patient #8, another experiment): recognized

Substance: IAAVERLWDYGMSSSPHVLR (listed as Homo sapiens) [peptide 1701-1720]
- recognition by CD4^+ cells (CD4^+ blood lymphocytes; [1]): recognized strongly
- recognition by CD4^+ cells (CD4^+ blood lymphocytes; patient #2, another experiment): recognized
- recognition by CD4^+ cells (CD4^+ blood lymphocytes; patient #8, another experiment): recognized
- proliferative response, ^3H-thymidine incorporation (FIG. 2) (CD4^+ splenocytes): recognized
- proliferative response of pooled CD4^+ splenocytes (CD4^+ splenocytes): recognized clearly and consistently in all or most experiments

Substance: DLNSCSMPLGMESKAISDAQ (listed as Homo sapiens) [peptide 2171-2190]
- recognition by CD4^+ cells (CD4^+ blood lymphocytes; patient # 8, hemophilia A with inhibitors, C2 peptides): recognized

Substance: MESKAISDAQITASSYFTNM (listed as Homo sapiens) [2181-2200]
- C2 peptides that elicited the strongest response of CD4^+ lymphocytes (CD4^+ blood lymphocytes; Hemophilia A with Inhibitors, Patient 6, t = 1): 2181-2200

Substance: LHLQGRSNAWRPQVNNPKEW (listed as Homo sapiens) [2211-2230]
- C2 peptides that elicited the strongest response of CD4^+ lymphocytes (CD4^+ blood lymphocytes; Hemophilia A without Inhibitors, Patient 9, t = 2): 2211-2230

Substance: 521-540: 20-residue synthetic peptide, residues 521-540 of the A2 domain of human fVIII (PTKSDPRCLTRYYSSFVNME; UniProt P00451 540-559, looked up, fragment)
- proliferative response, ^3H-thymidine incorporation (FIG. 2) (CD4^+ splenocytes): recognized

Substance: FTPVVNSLDPPLLTRYLRIH (listed as Homo sapiens) [2291-2310]
- C2 peptides that elicited the strongest response of CD4^+ lymphocytes (CD4^+ blood lymphocytes; Healthy Subjects, Subject 9, t = 1): 2291-2310

Substance: peptide 601-620: 20-residue synthetic peptide, residues 601-620 of the A2 domain of human fVIII (VQLEDPEFQASNIMHSINGY; UniProt P00451 620-639, looked up, fragment)
- proliferative response, ^3H-thymidine incorporation (FIG. 2) (CD4^+ splenocytes): recognized
- proliferative response of pooled CD4^+ splenocytes (CD4^+ splenocytes): recognized clearly and consistently in all or most experiments

Substance: SFQKKTRHYFIAAVERLWDY (listed as Homo sapiens) [peptide 1691-1710]
- experiments in which the peptide (or one or more peptides of the sequence region) was recognized (CD4^+ blood lymphocytes; 8 experiments done with CD4^+ cells from healthy subjects): 7 of the 8
- number of acquired hemophilia patients who recognized the peptide or region (CD4^+ blood lymphocytes; acquired hemophilia patients, not consistent between experiments of the same patient): 1
- recognition by CD4^+ cells (CD4^+ blood lymphocytes; healthy subject #2): did not recognize
- number of hemophilia A patients who strongly recognized the peptide (CD4^+ blood lymphocytes; hemophilia A patients with inhibitors): 2
- number of hemophilia A patients who strongly recognized the peptide (CD4^+ blood lymphocytes; hemophilia A patients without inhibitors): 1
- number of hemophilia A patients who strongly recognized the peptide (CD4^+ blood lymphocytes; hemophilia A patients, in only one of the experiments of the same patient): 3
- recognition by CD4^+ cells (CD4^+ blood lymphocytes; patient #8, one experiment): recognized

Substance: 531-550: 20-residue synthetic peptide, residues 531-550 of the A2 domain of human fVIII (RYYSSFVNMERDLASGLIGP; UniProt P00451 550-569, looked up, fragment)
- proliferative response, ^3H-thymidine incorporation (FIG. 2) (CD4^+ splenocytes): recognized

Substance: 2141-2160: 20-residue synthetic peptide, residues 2141-2160 of the C1 domain of human fVIII (NPPIIARYIRLHPTHYSIRS; UniProt P00451 2160-2179, looked up, fragment)
- proliferative response of pooled CD4^+ splenocytes (CD4^+ splenocytes): recognized clearly and consistently in all or most experiments

Substance: peptide 2131-2150: 20-residue synthetic peptide, residues 2131-2150 of the C1 domain of human fVIII (DSSGIKHNIFNPPIIARYIR; UniProt P00451 2150-2169, looked up, fragment)
- proliferative response, ^3H-thymidine incorporation (FIG. 2) (CD4^+ splenocytes): recognized
- proliferative response of pooled CD4^+ splenocytes (CD4^+ splenocytes): recognized clearly and consistently in all or most experiments

Substance: CLIGEHLHAGMSTLFLVYSN (listed as Homo sapiens) [2001-2020]
- A3 peptides that elicited the strongest response of CD4^+ lymphocytes (CD4^+ blood lymphocytes; Hemophilia A without Inhibitors, Patient 9, t = 1): 2001-2020

Substance: NENIHSIHFSGHVFTVRKKE (listed as Homo sapiens) [1951-1970]
- individual A3 peptides recognized by both patients (FIG. 4) (CD4^+ blood lymphocytes): recognized also by patient # 8

Substance: FDCKAWAYFSDVDLEKDVHS (listed as Homo sapiens) [1831-1850]
- A3 peptides that elicited the strongest response of CD4^+ lymphocytes (CD4^+ blood lymphocytes; Acquired Hemophilia, Patient 1, t = 2): 1831-1850
- recognition by CD4^+ cells (CD4^+ blood lymphocytes; patients #1 and #2 (acquired hemophilia), in some experiments): recognized
